Assays:
[1] = target: T1, CDK9 (Homo sapiens, UniProt P50750); test: Immunoblot, co-treatment with THAL-SNS-032 and/or dTAGV-1 in PATU-8902 LACZ-FKBP12F36V clone; type: cell-based
T1 construct: endogenous in cells; host or cells: PATU-8902 LACZ-FKBP12^F36V clone
Protocol: PATU-8902 LACZ-FKBP12^F36V and FKBP12^F36V-KRAS^G12V; KRAS^−/− cells and 293T cells were lysed with RIPA buffer supplemented with cOmplete protease inhibitors (Roche), PhosSTOP phosphatase inhibitors (Roche), and 0.1% benzonase (Novagen). Proteins were separated using NuPAGE Bolt^TM Bis–Tris gels (Thermo Fisher Scientific) and transferred to nitrocellulose membranes, which were blocked with Odyssey Blocking Buffer (LI-COR) and incubated with primary antibodies overnight. Membranes were washed three times with TBS-T, incubated with the appropriate fluorescently labeled infrared secondary antibodies, washed again three times with TBS-T, and assessed using an Odyssey CLx Imager (LI-COR)[6],[15]. EWS502 cells were lysed with Cell Lysis Buffer (Cell Signaling Technology) supplemented with cOmplete protease inhibitors (Roche). Proteins were separated using SDS-PAGE gels and transferred to PVDF membranes, which were blocked with 5% milk in TBS-T and incubated with primary antibodies overnight. Membranes were washed five times with TBS-T, incubated with the appropriate horseradish peroxidase-conjugated secondary antibodies, washed again five times with TBS-T, and imaged. The following primary antibodies were employed in this study: HA (Cell Signaling Technology #3724 and #2367, dilution at 1:1000), phospho-ERK1/2 T202/Y204 (Cell Signaling Technology #4370, dilution at 1:1000), ERK1/2 (Cell Signaling Technology #4696, dilution at 1:1000), phospho-AKT S473 (Cell Signaling Technology #4060, dilution at 1:1000), AKT (Cell Signaling Technology #2920, dilution at 1:1000), FKBP12 (Abcam #ab24373, dilution at 1:1000), GFP (Cell Signaling Technology #2555, dilution at 1:1000), FLI (Abcam #ab15289, dilution at 1:2000), NKX2-2 (Abcam #ab187375, dilution at 1:1000), GAPDH (Cell Signaling Technology #2118, dilution at 1:3000), Vinculin (Cell Signaling Technology #13901, dilution at 1:3000), β-Actin (Cell Signaling Technology #58169, dilution at 1:3000), and α-Tubulin (Cell Signaling Technology #3873, dilution at 1:5000). […]

[2] = system: FKBP12^F36V-EWS/FLI; test: Immunoblot of EWS502 FKBP12F36V-EWS/FLI; EWS/FLI-/- cells; type: cell-based
Protocol: To generate 293T^WT FKBP12^F36V-KRAS^G12V and 293T^VHL−/− FKBP12^F36V-KRAS^G12V cells, concentrated lentiviral supernatants[6] were applied to 293T^WT and 293T^VHL−/− cells[33] in the presence of 4 µg mL^−1 polybrene and transduced cell lines were selected with 2 µg mL^−1 puromycin. To generate EWS502 FKBP12^F36V-GFP cells, EWS502 cells were transduced with pLEX_305-dTAG-GFP lentiviral supernatant and selected with 1 µg mL^−1 puromycin. To generate EWS502 FKBP12^F36V-EWS/FLI; EWS/FLI^−/− cells, EWS502 cells were co-transduced with pLEX_305-dTAG-EWS/FLI and lentiCRISPR v2-Blast-sgFLI_Ex9 lentiviral supernatants. Cells were then selected with both 1 µg mL^−1 puromycin (pLEX_305-dTAG-EWS/FLI) and 5 µg mL^−1 blasticidin (lentiCRISPR v2-Blast-sgFLI_Ex9). Knockout of endogenous EWS/FLI and the expression of exogenous FKBP12^F36V-EWS/FLI were confirmed by immunoblot and pooled transduced cell populations were employed for this study. PATU-8902 LACZ-FKBP12^F36V and FKBP12^F36V-KRAS^G12V; KRAS^−/− clones were also employed in this study.
PATU-8902 LACZ-FKBP12^F36V and FKBP12^F36V-KRAS^G12V; KRAS^−/− cells and 293T cells were lysed with RIPA buffer supplemented with cOmplete protease inhibitors (Roche), PhosSTOP phosphatase inhibitors (Roche), and 0.1% benzonase (Novagen). Proteins were separated using NuPAGE Bolt^TM Bis–Tris gels (Thermo Fisher Scientific) and transferred to nitrocellulose membranes, which were blocked with Odyssey Blocking Buffer (LI-COR) and incubated with primary antibodies overnight. Membranes were washed three times with TBS-T, incubated with the appropriate fluorescently labeled infrared secondary antibodies, washed again three times with TBS-T, and assessed using an Odyssey CLx Imager (LI-COR)[6],[15]. EWS502 cells were lysed with Cell Lysis Buffer (Cell Signaling Technology) supplemented with cOmplete protease inhibitors (Roche). Proteins were separated using SDS-PAGE gels and transferred to PVDF membranes, which were blocked with 5% milk in TBS-T and incubated with primary antibodies overnight. Membranes were washed five times with TBS-T, incubated with the appropriate horseradish peroxidase-conjugated secondary antibodies, washed again five times with TBS-T, and imaged. […]

[3] = system: MED14; design: method as in PMID 32483291; conditions: HCT116 cells; cited from earlier work

In the case of `CC[C@H](C(=O)N1CCCC[C@H]1C(=O)O[C@H](CCc1ccc(OC)c(OC)c1)c1ccccc1OCC(=O)NCCCCCCC(=O)N[C@H](C(=O)N1C[C@H](O)C[C@H]1C(=O)N[C@@H](C)c1ccc(-c2scnc2C)cc1)C(C)(C)C)c1cc(OC)c(OC)c(OC)c1` [dTAG^V-1], the “Degradation of both LACZ-FKBP12F36V and CDK9 on co-treatment” value ([1]; co-treatment dTAGV-1 + THAL-SNS-032, 24 h) is reported as “pronounced degradation”, the CDK9 protein levels ([1]; dTAGV-1 alone, 24 h) is reported as “did not alter” and the “FKBP12F36V-EWS/FLI degradation, immunoblot” value ([2]; EWS502 FKBP12F36V-EWS/FLI, EWS/FLI-/- cells) is reported as “only susceptible to degradation upon treatment with dTAG^V-1”. The “Time of treatment at which FKBP12F36V-EWS/FLI degradation was evident” value ([2]; EWS502 cells) was at most 1 h and the “Degradation of MED14” value [3] was “effective degradation”.

— PMC7501296, “Rapid and direct control of target protein levels with VHL-recruiting dTAG molecules” (Nature Communications, 2020)
